Assay results reported in US9597407B2, “Targeted antimicrobial moieties” (C3 Jian, Inc., priority 2009, dated 2017).
Entries after “also recorded” stand apart in the source; their conditions may differ.

Legend:
bacteria = assay: Binding of targeting peptides to microorganisms (Table 3); conditions: peptide binding in aqueous buffers that varied depending on peptide solubility; preferably 1x PBS
microorganisms = assay: Morphology, biofilm and growth disruption by peptides (Table 5); format: cell-based; design: key: A: Peptide aggregates; B: Less hyphal formation; Clumps; Diffuse clumps and small polyps; F: Diffuse growth; H: Thin; I: Growth inhibition; Microcolony formation; Rippled; Small polyps; Thick; W: Halo formation on top, microlonies on bottom
Text: In certain embodiments peptides that induce alterations in phenotype or other biological activities can also be used as antimicrobial effector moieties.

| Substance | Target(s) (microorganisms bound by the targeting peptide) (bacteria) | Organism, effect (morphology, biofilm and growth disruption) (microorganisms; E. faecalis) | Organism, effect (morphology, biofilm and growth disruption) (microorganisms; C. jejuni) | Organism, effect (morphology, biofilm and growth disruption) (microorganisms; E. coli) | Organism, effect (morphology, biofilm and growth disruption) (microorganisms; MRSA) | Organism, effect (morphology, biofilm and growth disruption) (microorganisms; S. epidermidis) | Organism, effect (morphology, biofilm and growth disruption) (microorganisms; S. pneumoniae) | Target(s) (microorganism bound by the targeting peptide) (bacteria) | Organism, effect (morphology, biofilm and growth disruption) (microorganisms; C. jeikeium) | Organism, effect (morphology, biofilm and growth disruption) (microorganisms; B. subtilis) | Organism, effect (morphology, biofilm and growth disruption) (microorganisms; C. albicans) |
| --- | --- | --- | --- | --- | --- | --- | --- | --- | --- | --- | --- |
| PF-588 (ESVEAIKAKAIK; Peptide with targeting and/or antimicrobial activity) | S. epidermidis; also recorded: E. coli; also recorded: C. albicans; also recorded: E. faecalis; also recorded: C. jeikeium; also recorded: C. jejuni | E. faecalis (A) |  |  |  |  |  |  |  |  |  |
| PF-590 (YYQAKLFPLL; Peptide with targeting and/or antimicrobial activity) | S. epidermidis; also recorded: M. luteus; also recorded: E. coli; also recorded: E. faecalis; also recorded: C. jeikeium |  | C. jejuni (R) |  |  |  |  |  |  |  |  |
| PF-593 (MEISTLKKEKLHVKDELSQYLANYKK; Peptide with targeting and/or antimicrobial activity) | C. jeikeium | E. faecalis (A) |  |  |  |  |  |  |  |  |  |
| PF-594 (IVSAIV; Peptide with targeting and/or antimicrobial activity) | C. jeikeium | E. faecalis (C) |  |  |  |  |  |  |  |  |  |
| PF-596 (SKMWDKILTILILILELIRELIKL; Peptide with targeting and/or antimicrobial activity) | S. epidermidis and M. luteus and P. mirabilis and E. coli and P. aeruginosa and MRSA and E. faecalis | E. faecalis (D) | C. jejuni (D) | E. coli (C) | MRSA (D) | S. epidermidis (D) | S. pneumoniae (D) |  |  |  |  |
| PF-598 (MKFMLEVRNKAISAYKEITRTQI; Peptide with targeting and/or antimicrobial activity) |  | E. faecalis (R) | C. jejuni (R) | E. coli (C) | MRSA (D) | S. epidermidis (R) | S. pneumoniae (R) | S. epidermidis and M. luteus and P. mirabilis and P. aeruginosa and C. albicans and MRSA and S. pneumoniae and C. jeikeium |  |  |  |
| PF-599 (LFEIFKPKH; Peptide with targeting and/or antimicrobial activity) |  | E. faecalis (A) | C. jejuni (R) |  | MRSA (C) | S. epidermidis (M) | S. pneumoniae (R) | S. epidermidis and P. mirabilis and E. coli and C. albicans and MRSA and S. pneumoniae and C. jeikeium |  |  |  |
| PF-601 (YRVTVKALE; Peptide with targeting and/or antimicrobial activity) |  | E. faecalis (A) | C. jejuni (A) |  |  |  |  | C. jeikeium |  |  |  |
| PF-602 (LEKEKKEYIEKLFKTK; Peptide with targeting and/or antimicrobial activity) |  | E. faecalis (A) |  |  |  |  |  | P. mirabilis; also recorded: C. jeikeium |  |  |  |
| PF-604 (LMEQVEV; Peptide with targeting and/or antimicrobial activity) |  | E. faecalis (A) |  |  |  |  |  | S. epidermidis; also recorded: C. albicans; also recorded: C. jeikeium |  |  |  |
| PF-607 (YIESDPRKFDYIFGAIRDH; Peptide with targeting and/or antimicrobial activity) |  | E. faecalis (A) | C. jejuni (R) |  | MRSA (S) | S. epidermidis (M) | S. pneumoniae (R) | S. epidermidis and P. mirabilis and E. coli and MRSA and S. pneumoniae and C. jeikeium |  |  |  |
| PF-609 (TEIKLDNNEYLVLNLDDILGILK; Peptide with targeting and/or antimicrobial activity) |  | E. faecalis (A) | C. jejuni (R) |  | MRSA (C) |  | S. pneumoniae (R) | P. mirabilis; also recorded: E. coli; also recorded: S. pneumoniae |  |  |  |
| PF-613 (ADEFAKL; Peptide with targeting and/or antimicrobial activity) |  | E. faecalis (A) |  |  | MRSA (C) | S. epidermidis (R) |  | C. jeikeium |  |  |  |
| PF-629 (chain 1 GLAAIATVFALY; chain 2 GLAAIATVFALY; Peptide with targeting and/or antimicrobial activity) |  | E. faecalis (R) |  |  | MRSA (D) | S. epidermidis (C) | S. pneumoniae (M) | S. epidermidis and P. aeruginosa and C. albicans and MRSA and S. pneumoniae and E. faecalis and C. jeikeium | C. jeikeium (R) |  |  |
| PF-631 (chain 1 LIIYFSKTGNTARATRQI; chain 2 LIIYFSKTGNTARATRQI; Peptide with targeting and/or antimicrobial activity) |  | E. faecalis (H) |  |  |  |  | S. pneumoniae (I) | S. epidermidis and P. aeruginosa and C. albicans and MRSA and S. pneumoniae and E. faecalis and C. jeikeium |  |  |  |
| PF-632 (chain 1 TTIQGVASLEKHGFRYTIIYPTRI; chain 2 TTIQGVASLEKHGFRYTIIYPTRI; Peptide with targeting and/or antimicrobial activity) |  | E. faecalis (D) |  |  | MRSA (D) | S. epidermidis (D) | S. pneumoniae (M) | S. epidermidis and P. aeruginosa and C. albicans and MRSA and S. pneumoniae and E. faecalis and C. jeikeium | C. jeikeium (D) | B. subtilis (H) | C. albicans (B) |
| PF-636 (chain 1 LVRLA; chain 2 LVRLA; Peptide with targeting and/or antimicrobial activity) |  | E. faecalis (H) |  |  |  |  | S. pneumoniae (H) | S. epidermidis and C. albicans and MRSA and S. pneumoniae and E. faecalis |  | B. subtilis (H) | C. albicans (B) |
| PF-637 (chain 1 SRIKQDARSVRKYDRIGIFFYSFKSA; chain 2 SRIKQDARSVRKYDRIGIFFYSFKSA; Peptide with targeting and/or antimicrobial activity) |  | E. faecalis (D) |  |  | MRSA (M) | S. epidermidis (M) | S. pneumoniae (M) | S. epidermidis and P. aeruginosa and C. albicans and MRSA and S. pneumoniae and E. faecalis and C. jeikeium | C. jeikeium (D) |  |  |
| PF-638 (chain 1 TFILPK; chain 2 TFILPK; Peptide with targeting and/or antimicrobial activity) |  | E. faecalis (H) |  |  | MRSA (M) | S. epidermidis (R) | S. pneumoniae (I) | S. epidermidis and C. albicans and MRSA and C. jeikeium |  |  |  |
